Data published in patent US20110295343A1, “NEAR-INFRARED ELECTROMAGNETIC MODIFICATION OF CELLULAR STEADY-STATE MEMBRANE POTENTIALS” (priority 2008, published 2011).
Where “and” joins values, the source holds several entries; their conditions need not be identical. Equal values may be shown once.

Experiments:
MRSA in the nares = assay: Nasal colonization human study Part One, quantitative swab cultures, MRSA; type: in vivo, S. aureus; conditions: for MRSA Average: laser w/ drug arm, one line per patient; for reduction of bioburden: laser plus 2% erythromycin paste
Description: (§1) This investigational protocol was an open-label study of subjects who are colonized with MRSA in the nares (nostril). The study was done in two parts.
(§2) In this human study, three arms were produced. […] This was done on day 1 and again on day three; and Arm #3: ⅓ of the subjects were treated with the laser and then a topical antibiotic three times a day for five days. Prior to enrollment in this study, prospective subjects met all of the following criteria: age≧18 years and ≦70 years of age; previous positive MRSA culture; negative urine pregnancy test or post-menopausal for one year; willing to comply with study requirements, including return visits and self-application of topical antibiotics; and willing to provide informed consent to participate. Prospective subjects were excluded from this study if any of the following criteria were met: pregnancy; patients who are severely immunocompromised (such as may occur in AIDS, renal transplant regimens, immunosuppressed states consequent to malignancy or agents used in rendering oncologic care, or who suffer from end stage renal disease); diabetic patients; allergy to antimicrobials being used in the study (group 3).
(§3) All participants underwent an initial quantitative assessment for nasal carriage of S. aureus, during their first visit. Each participant had the anterior nares (each nostril) sampled for culture with a circular movement (three rotations on each side) of a sterile wood applicator plain Rayon® tipped swab in each nostril and placed in a labled tube. 2 ml of room temp phosphate buffered saline was placed in the tube after the removal of the swab (to completely cover the swab in the tube). Each swab was then placed back in the tube and the tube was then vortexed for 15 seconds to disperse isolates of MRSA and/or MSSA into the PBS solution. Aliquots of PBS from the tube were plated in the following manner: 100 μl from each tube was lawn plated in triplicate (3×) on selective Chromogenic MRSA And MSSA agar. Plates were placed in incubator within 30 minutes of the plating procedure, and colonies were counted manually, and recorded 18 hrs after plating.
(§4) On day one of the study, all subjects underwent this exact procedure in arms 1 and 2 of the study two minutes before the laser procedure. They again were sampled in the same manner 2 minutes after the laser procedure. In the third arm of the study, they were swabbed two minutes before the procedure and the first antibiotic administration was completed after the laser therapy. The post/laser swab sample was taken for this arm 20 min later.
(§5) On day three of the study, all subjects from arms one two and three underwent the exact same procedures as day 1 of the study.
(§6) On day five all subjects from all arms underwent just one swabbing per nostril with the exact same sampling procedure one time.
(§7) Application of H202: 3% OTC hydrogen peroxide was applied to a cotton pledget for application to the subject prior to irradiation. This was inserted in the nose for 120 seconds and then removed. The subjects were then given doses of phototherapeutic near infrared radiation as described. Application of generic topical Antimicrobial: The subjects were first given doses of phototherapeutic near infrared radiation as described. […] The swab was inserted approximately 1 cm in to the anterior nares and rotated 360 degrees several times and removed. Patients were instructed to perform the exact application procedure 3 times a day for the remaining 5 days.
(§8) The NOVEON™ laser was used for two (2) six-minute treatments in each nostril on day (1) and day (3) of the study.
(§9) The laser was calibrated before the first treatment of the day. Intermittent temperature testing of the treatment site was performed on each subject using a noncontact infrared thermometer (Raytek Minitemp), 30-60 second intervals.

MRSA = assay: CFU counts of MRSA plated on agar with antibiotic after sub-lethal NIMELS laser (Examples IX-XII); type: cell-based, Staphylococcus aureus; conditions: for effect of sub-lethal NIMELS irradiation on antibiotic action against MRSA colonies (words): antibiotic at resistant MIC just below effectiveness level
Text: The following parameters illustrate the general bacterial methods according to the invention as applied to MRSA for the in vitro Experiments V and VIII-XII.
The null hypothesis is μ1−μ2=0 and μ1−μ3=0 where:
a) μ1 is sub-lethal dosimetry from the NIMEL laser system on MRSA as a control and;
The null hypothesis is μ1−μ2=0 and μ1−μ3=0 where: • a) μ1 is sub-lethal dosimetry from the NIMEL laser system on MRSA as a control and; • b)μ2 is the same sub-lethal dosimetry from the NIMEL laser system on MRSA with the addition of tetracycline at resistant MIC just below effectiveness level and; • c) μ3 is the same sub-lethal dosimetry from the NIMEL laser system on MRSA with the addition of rifampin at resistant MIC just below effectiveness level.
The null hypothesis is μ1−μ2=0 and μ1−μ3=0 where: a) μ1 is sub-lethal dosimetry from the NIMEL laser system on MRSA as a control and; b)μ2 is the same sub-lethal dosimetry from the NIMEL laser system on MRSA with the addition of methicillin at resistant MIC just below effectiveness level and; […]

MSSA in the nares [1] = assay: Nasal colonization human study Part Two, laser plus topical erythromycin, MSSA; type: in vivo, S. aureus; conditions: one patient, baseline count >1000 CFU's; day 5 culture
Description: A second human study was conducted, to further evaluate the therapeutic potential of the NOVEON™ laser system, including its ability to reverse drug resistance in bacteria. The study was conducted in a similar manner as Part One, above. Outcome measures assessed included both laboratory study and clinical observations.
Positive anterior nares cultures were obtained in six patients (12 nostrils) having nasal colonization of MRSA or MSSA, before initiating bacterial photodamage through doses of phototherapeutic near infrared radiation. One patient had MRSA only, 3 had MSSA only, and 2 had both MRSA and MSSA.
The swab was inserted approximately 1 cm in to the anterior nares of the subject, rotated 360 degrees several times and removed.
The laser was calibrated before the first treatment of the day and between each patient. The NOVEON™ laser was used for four six-minute treatments of the nares at the following sets of dosimetries (Tables 59), which were evaluated for safety in previous studies. […] Temperatures of the nares were recorded every 30 seconds with an IR temperature thermometer.
Quantitative cultures from each nostril were obtained and plated in triplicate on chromogenic agar before and 20 minutes after exposure on day 1 and day 3. […]

MSSA in the nares [2] = assay: Nasal colonization human study Part One, quantitative swab cultures, MSSA; type: in vivo, S. aureus; conditions: for s. aureus Average: laser w/ drug arm, one line per patient
Description: as §1, §2, §3, §4, §5, §6, §7, §8, §9

[3] = Initial Analysis, Post-treatment swab, left nostril
[4] = Initial Analysis, Post-treatment swab, right nostril
[5] = Initial Analysis, Pre swab (baseline), left nostril, mean of triplicate plates
[6] = Initial Analysis, Pre swab (baseline), right nostril
[7] = Second Analysis, Post-treatment swab, left nostril
[8] = Second Analysis, Post-treatment swab, right nostril
[9] = Second Analysis, Pre swab, left nostril
[10] = Second Analysis, Pre swab, right nostril
[11] = Third Analysis, Swab, left nostril
[12] = Third Analysis, Swab, right nostril
[13] = patient 01-005, 2% erythromycin paste three times a day for five days

For `CC[C@H]1OC(=O)[C@H](C)[C@@H](O[C@H]2C[C@@](C)(OC)[C@@H](O)[C@H](C)O2)[C@H](C)[C@@H](O[C@@H]2O[C@H](C)C[C@H](N(C)C)[C@H]2O)[C@](C)(O)C[C@@H](C)C(=O)[C@H](C)[C@@H](O)[C@]1(C)O` [Erythromycin], the “MRSA Average” value (MRSA in the nares; [3]) was 0 CFU (2×) and 166 CFU, the “MRSA Average” value (MRSA in the nares; [4]) was 0 CFU (2×) and 1 CFU and the “MRSA Average” value (MRSA in the nares; [5]) was 0 CFU (2×) and 3072 CFU. For the same compound, the “MRSA Average” value (MRSA in the nares; [6]) was 0 CFU (2×) and 8 CFU, the “MRSA Average” value (MRSA in the nares; [7]) was 0 CFU and the “MRSA Average” value (MRSA in the nares; [8]) was 0 CFU. The “MRSA Average” value (MRSA in the nares; [9]) was 0 CFU (2×) and 76 CFU, the “MRSA Average” value (MRSA in the nares; [10]) was 0 CFU and the “MRSA Average” value (MRSA in the nares; [11]) was 0 CFU. The “MRSA Average” value (MRSA in the nares; [12]) was 0 CFU, the reduction of bioburden (MRSA in the nares; patient 01-005, heavily colonized nostril) was no less than 3 log and the reduction of bioburden (MRSA in the nares; patient 01-005, moderately colonized nostril) was no less than 2 log. The “outcome on MRSA colonization, laser plus topical erythromycin” value (MRSA in the nares; [13]) was “eradication in both nostrils”, the “effect of sub-lethal NIMELS irradiation on antibiotic action against MRSA colonies (words)” value (MRSA) was “successful reversal of MRSA resistance” and the “effect of sub-lethal NIMELS irradiation on antibiotic action against MRSA colonies (words)” value (MRSA; listed as erythromycin) was “resistance to erythromycin being reversed”. For the same compound, the “MRSA colony count, CONTROL (no laser)” value (MRSA; no laser, agar with erythro 4 ug/ml, replicates B-4 1 to 5) was 196 and 168 and 175 and 177 and 195, the “MRSA colony count, EXPERIMENTAL” value (MRSA; sub-lethal NIMELS laser, agar with erythro 4 ug/ml, replicates B-4 1 to 5) was 27 and 39 (2×) and 35 and 28 and the “reduction in MSSA” value (MSSA in the nares [1]) was 3 log. For the same compound, the “s. aureus Average” value (MSSA in the nares [2]; [3]) was 0 CFU (2×) and 188 CFU, the “s. aureus Average” value (MSSA in the nares [2]; [4]) was 0 CFU and the “s. aureus Average” value (MSSA in the nares [2]; [5]) was 0 CFU (2×) and 3045 CFU. For the same compound, the “s. aureus Average” value (MSSA in the nares [2]; [6]) was 0 CFU (2×) and 16 CFU, the “s. aureus Average” value (MSSA in the nares [2]; [7]) was 0 CFU and the “s. aureus Average” value (MSSA in the nares [2]; [8]) was 0 CFU. The “s. aureus Average” value (MSSA in the nares [2]; [9]) was 0 CFU (2×) and 71 CFU, the “s. aureus Average” value (MSSA in the nares [2]; [10]) was 0 CFU and the “s. aureus Average” value (MSSA in the nares [2]; [11]) was 0 CFU. For the same compound, the “s. aureus Average” value (MSSA in the nares [2]; [12]) was 0 CFU and the “outcome on MSSA colonization, laser plus topical erythromycin” value (MSSA in the nares [2]; [13]) was “eradication in both nostrils”.
